In brackets after ≈: the same amount, converted by molar mass.
How the values were obtained:
[1] = at 20° C.; cited from earlier work
[2] = system: confused flour beetle, Tribolium confusum; assay: chlorobenzene fumigation in 1.9-liter jars, confused flour beetle adults; type: in vivo; settings: 21° C.
Method: (§1) Example 1: Chlorobenzene fumigations were conducted for control of six insect species and one mite species and they were: rice weevil, Sitophilus oryzae (Coleoptera: Curculionidae), confused flour beetle, Tribolium confusum (Coleoptera: Tenebrionidae), navel orangeworm, Amyelois transitella (Lepidoptera: Pyralidae), spotted wing drosophila, Drosophila suzukii (Diptera: Drosophilidae), western flower thrips, Frankliniella occidentalis (Thysanoptera: Thripidae), eastern subterranean termite, Reticulitermes flavipes (Blattodea: Rhinotermitidae), and ham mite, Tyrophagus putrescentiae (Schrank) (Acarina: Acaridae) (FIG. 2). Most fumigations were conducted in 1.9-liter glass jars. Confused flour beetle and rice weevil were fumigated in 1.9-liter jars and in 60-liter chambers with corn. Navel orangeworm was fumigated in 21.8 L chambers modified from pressure cookers. […]
(§2) A filter paper disc was clipped on the port underneath the lid with a metal clip. […] Insect mortality was then scored. Chlorobenzene doses were recorded as microliter liquid per liter of chamber space (ul/l).
(§3) Confused flour beetle and rice weevil adults were collected separately in plastic vials from their prospective colonies. […] Chlorobenzene vapor concentrations were measured during fumigation using detector tubes. After fumigation, insects were kept at room temperature overnight before being scored for mortality. […]

[3] = system: eastern subterranean termite, Reticulitermes flavipes; assay: chlorobenzene fumigation in 1.9-liter jars, eastern subterranean termite workers; type: in vivo; settings: 50 μl/l dose, 3 h at 21° C.
Method: (§4) Example 1: Chlorobenzene fumigations were conducted for control of six insect species and one mite species and they were: rice weevil, Sitophilus oryzae (Coleoptera: Curculionidae), confused flour beetle, Tribolium confusum (Coleoptera: Tenebrionidae), navel orangeworm, Amyelois transitella (Lepidoptera: Pyralidae), spotted wing drosophila, Drosophila suzukii (Diptera: Drosophilidae), western flower thrips, Frankliniella occidentalis (Thysanoptera: Thripidae), eastern subterranean termite, Reticulitermes flavipes (Blattodea: Rhinotermitidae), and ham mite, Tyrophagus putrescentiae (Schrank) (Acarina: Acaridae) (FIG. 2). Most fumigations were conducted in 1.9-liter glass jars. Confused flour beetle and rice weevil were fumigated in 1.9-liter jars and in 60-liter chambers with corn. Navel orangeworm was fumigated in 21.8 L chambers modified from pressure cookers.
Rice weevil and confused flour beetle were reared on pearled barley and wheat flour diet in jars, respectively. […]
as §2
Workers of eastern subterranean termites were obtained from a commercial source. […] After fumigation, vials with insects were held in an environmental chamber overnight before mortality was scored. […]

[4] = system: spotted wing drosophila, Drosophila suzukii; assay: chlorobenzene fumigation in 1.9-liter jars, spotted wing drosophila flies; type: in vivo; settings: 50 μl/l dose, 3 h at 21° C.
Method: as §4
Rice weevil and confused flour beetle were reared on pearled barley and wheat flour diet in jars, respectively. Western flower thrips were reared on lettuce plants in a greenhouse. Spotted wing drosophila was reared on an artificial diet in plastic cups. […]
A filter paper disc was clipped on the port underneath the lid with a metal clip. […] Insect mortality was then scored. Chlorobenzene doses were recorded as microliter liquid per liter of chamber space (ul/l). […]

rice weevil = assay: large-scale chlorobenzene fumigation of corn in a 60-liter chamber, rice weevil all life stages; type: in vivo, Sitophilus oryzae; settings: 24 h at 21° C.
Method: (§5) Procedure-Large-scale chlorobenzene fumigations of corn with confused flour beetle and rice weevil were conducted in a 60 L fumigation chamber. The chamber was modified from a 60 L diary pot with an added platform at bottom and a vertically positioned air blower to circulate air in the chamber (FIG. 3). A vial with filter paper was positioned near a port on the wall. A total of 20 kg corn was placed in 9 mesh bags. Confused flour beetle adults and other life stage in flour diet and rice weevil adults and other life stages in pearled barley were sealed in small plastic cages with mesh screens on top and bottom for air movement. One cage with confused four beetle culture medium with all life stages and one cage with all life stages of rice weevil were placed in each mesh bag. The bags were packed in the chamber in two layers. The last two containers with confused flour beetle and rice weevil respectively were placed on top of the corn bags. Ten cages for each species were set up to be fumigated. Five cages for each species were used as controls. The chamber was then placed in a fume hood. After the chamber was sealed, 30 ml chlorobenzene was injected into the vial in the chamber and the air blower was turned on to start a fumigation treatment. The fumigation treatment lasted 24 h at 21° C.
(§6) In each fumigation, chlorobenzene vapor concentrations were measured at 2, 4, 6, 9, 21,and 24 h of each treatment using chlorobenzene detector tubes. For each measurement, a 40 ml air sample from the headspace of the chamber was taken and diluted 50-fold in a 1.9 L glass jar. Then, chlorobenzene detectors with a range of 2-500 ppm were used to measure chlorobenzene concentrations. At the end of each fumigation, the lid of the fumigation chamber was removed, and the air blower was kept running for at least 2 h to ventilate the chamber. The corn bags were then removed and containers with insects were recovered. Insects together with diet from each cage were placed in a plastic vial. All adults were removed from each vial and mortality of adults was scored next day. All vials with diet containing other life stages were incubated at 25° C. in an environmental chamber to allow surviving immature individuals to develop and emerge as adults. The vials were checked weekly to count and remove emerged adults to assess mortality of immature stages until there was no adult emergence for two consecutive weeks. A total of three large-scale fumigation tests have been conducted.

[5] = system: navel orangeworm, Amyelois transitella; assay: 24 h chlorobenzene fumigation in 21.8-liter chambers, navel orangeworm eggs, larvae and pupae; type: in vivo; settings: 24 h at 21° C.; for Larvae Mortality (%) Mean ± SE: 2nd, 4th, 6th instar pooled
Method: Procedure-Navel orangeworm eggs, larvae, and pupae were fumigated with chlorobenzene for 24 h at 21° C. in 21.8L chambers modified from pressure cookers to determine effects on mortality. Each chamber has a fan to circulate air. A small container with a piece of filter affixed in it was positioned next to the fan in each chamber as a reservoir for chlorobenzene (FIG. 4). Egg sheet with eggs oviposited during the last 3 days was harvested and cut into small pieces each with about 50 eggs. One piece of egg sheet was placed in a small 49 ml plastic vial and sealed with a screened lid. Larvae of three different ages (2nd, 4th, and 6th) were set up separately in 157 ml plastic vials each containing 3 g diet (10/vial). The vial was sealed with a screened lid. Three chlorobenzene does 50, 100, and 200 μl/l were tested in three chambers. They were achieved by adding 1, 2, and 4 ml of chlorobenzene in reservoirs in three fumigation chambers, respectively. Except for eggs that were only fumigated with chlorobenzene at 100 and 200 μl/l together with larvae and pupae, in each test, 5 vials of eggs, 9 vials of larvae (3 vials for each stage), and 3 vials of pupae were fumigated in one chamber. Controls were also set up for all life stages tested.
After chlorobenzene was added, the chamber was sealed and the fan was turned on to circulate air continuously for the 24 h duration of fumigation. Chlorobenzene detector tubes were used to measure chlorobenzene vapor concentrations 5-6 times between 2 h after start and before the end of fumigations. By the end of fumigation, all chlorobenzene liquid had vaporized in all three treatments. After fumigation, vials with larvae were held at 21° C. overnight before larval mortality was scored. For navel orangeworm eggs, diet was added in each vial and vials were incubated at 25° C. to allow all viable eggs to hatch. After over 10 days, neonate larvae were counted to estimate egg mortality. Pupae were also incubated at 25° C. in an environmental chamber to allow all viable pupae to develop into moths, and moths were then counted to determine pupal mortality. A total of three tests were conducted.

[6] = air=1; cited from earlier work
[7] = cited from earlier work
confused flour beetle = assay: large-scale chlorobenzene fumigation of corn in a 60-liter chamber, confused flour beetle all life stages; type: in vivo, Tribolium confusum; settings: 24 h at 21° C.
Method: as §5, §6

[8] = system: western flower thrips, Frankliniella occidentalis; assay: chlorobenzene fumigation in 1.9-liter jars, western flower thrips larvae and adults; type: in vivo; settings: 24 h at 2° C.
Method: as §1, with “corn.” for “corn. Navel orangeworm was fumigated in 21.8 L chambers modified from pressure cookers.”
as §2
Larvae and adults of western flower thrips were collected from infested lettuce plants in small vials each containing a piece of lettuce leaf (ca 20/vial) and stored in a refrigerator to cool them down. […] Vapor concentrations of chlorobenzene were measured during fumigation. After fumigation, thrips were kept at 2° C. overnight before mortality was scored. […]

[9] = system: rice weevil, Sitophilus oryzae; assay: chlorobenzene fumigation in 1.9-liter jars, rice weevil adults; type: in vivo; settings: 21° C.
Method: as §1, §2, §3

[10] = system: ham mite, Tyrophagus putrescentiae; assay: chlorobenzene fumigation in 1.9-liter jars, ham mites on dog food kibbles; type: in vivo; settings: 21° C., larvae and adults
Method: as §1, §2
Ham mites on infested dog food kibbles were fumigated with chlorobenzene at different doses for 24 and 48 h at 21° C. […] After fumigation, vials with ham mites were held at 21° C. overnight before mortality of larvae and adults was scored. […] Chlorobenzene vapor concentrations were measured during each fumigation. […]

[11] = cited from earlier work; remark: listed apart in the source
[12] = 100 μl/l dose (800 ppm vapor concentration), 48-h fumigation
[13] = 150 μl/l dose (1800 ppm vapor concentration), 24-h fumigation
[14] = 30 ml chlorobenzene in 60 L chamber with 20 kg corn
[15] = large-scale fumigations of corn, 60 L chamber

## Clc1ccccc1 [chlorobenzene]
[1]
  vapor pressure: 11.7 mmHg
[2]; [12]
  mortality of confused flour beetle adults: 100%
[2]; [13]
  mortality of confused flour beetle adults: 100%
[3]
  mortality of termite workers: 100%
[4]
  mortality of spotted wing drosophila flies: 100%
Rice weevil; [14]
  Adults Mortality (%): 100%
Rice weevil; 30 ml chlorobenzene in 60 L chamber with 20 kg corn, adults emerged from 30 treatment vials (1645 from 15 control vials)
  Immature stages Survived to adults: 73
Rice weevil; 30 ml chlorobenzene in 60 L chamber with 20 kg corn, relative to control by adults emerged, assuming equal numbers of vials
  Immature stages Relative mortality (%): 97.8%
Rice weevil; [15]
  control of adults of rice weevil: complete control
[5]; 50 μl/l dose
  Pupae Mortality (%) Mean ± SE: 7.4 ± 3.8%
  Larvae Mortality (%) Mean ± SE: 20.4 ± 3.6%
[5]; 100 μl/l dose
  Pupae Mortality (%) Mean ± SE: 20.4 ± 5.0%
  Larvae Mortality (%) Mean ± SE: 69.1 ± 4.6%
[5]; 100 μl/l dose, 890 eggs (control 370 neonates of 887)
  Eggs Total neonates: 0
[5]; 200 μl/l dose
  Pupae Mortality (%) Mean ± SE: 43.5%
  Larvae Mortality (%) Mean ± SE: 95.9 ± 1.3%
[5]; 200 μl/l dose, 884 eggs (control 370 neonates of 887)
  Eggs Total neonates: 0
[5]; both doses (100 and 200 μl/l)
  effect on navel orangeworm eggs: All eggs were killed
[6]
  vapor density relative to air: 3.9
[7]
  water solubility: 466.3 µg/mL (≈ 4.14 mM)
Confused flour beetle; [14]
  Adults Mortality (%): 100%
Confused flour beetle; 30 ml chlorobenzene in 60 L chamber with 20 kg corn, adults emerged from 30 treatment vials
  Immature stages Survived to adults: 0
Confused flour beetle; 30 ml chlorobenzene in 60 L chamber with 20 kg corn, relative to control by adults emerged
  Immature stages Relative mortality (%): 100%
Confused flour beetle; [15]
  control of adults and immature life stages of confused flour beetle: Complete control
[8]; 50 μl/l dose (about 370 ppm)
  mortality at 370 ppm: 95.3%
[8]; 75 μl/l dose (about 630 ppm)
  mortality at 630 ppm: 100%
[9]; [12]
  mortality of rice weevil adults: 100%
[9]; [13]
  mortality of rice weevil adults: 100%
[10]; 150 μl/l dose (about 1700 ppm), 48-h fumigation
  mortality at 1700 ppm: 99.9%
[10]; 200 μl/l dose (about 2000 ppm), 24-h fumigation
  mortality at 2000 ppm: 100%
[11]; 8-hour workday and 40-hour work week
  OSHA exposure limit: 75 ppm
[11]; EPA category 4
  oral and dermal toxicity: very low
[11]; reported
  carcinogenicity: non-carcinogenic

Source: patent US20250344695A1, “METHOD FOR PEST CONTROL” (priority 2024, published 2025)
